For series [1], the system named is primary cells from a BTZ refractory MM patient. Briefly: Primary cell viability, CellTiter-Glo, 72 h. As to conditions: Homo sapiens. (In ATP-based viability assays light output follows the ATP content of the culture.)
Description: (§1) White blood cells (WBCs) were separated from red blood cells by the Ficoll density gradient. Multiple myeloma cells were then isolated from WBCs using human CD138 affinity magnetic beads (Miltenyi Biotec; cat#130-093-062; Gaithersburg, MD, USA) following the manufacturer’s protocol. Cells were cryopreserved in 10% DMSO in FBS. Revived cells were maintained in an RPMI medium with 10% FBS for 10 days prior to treatment. […] Cells were equilibrated to RT and CellTiter-Glo (Promega; Madison, WI, USA) solution (100 μL) was added and incubated with shaking for 10 min at RT. The assay plate was then allowed to equilibrate for 5 min at RT and luminescent readings were taken on a SpectraMax® M5. Data are presented as a percentage of the vehicle control for each experimental condition, after background subtraction. Error bars represent SD for triplicate wells.
Series [2] in a line: Pharmacokinetic assessment in CD-1 mice. Format: in vivo. As to conditions: for Cmax / Tmax: po, 100 mg/kg. As for the experimental part: The PK study was carried out with CD-1 mice (males, 6–8 weeks of age, n = 3 per treatment group) weighing between 24.9 g to 33.7 g immediately prior to dosing. TCH-165 (100 mg/kg) was administered by oral gavage, as a homogeneous suspension in a 3:7 (v/v) propylene glycol: 5% dextrose as a vehicle. A second dose of 100 mg/kg TCH-165 was administered approximately 8 h post-initial gavage. Blood was collected at 0.5 h, 1 h, 2 h, 4 h, 8 h, 9 h, 10 h, 12 h, and 16 h post-initial gavage in lithium heparin tubes. Plasma was separated by centrifugation and analyzed using mass spectrometry.

In series [3] the test system is primary human MM cells of newly diagnosed patient. Briefly: Primary cell viability, CellTiter-Glo, 72 h.
Description: as §1
Series [4] relates to RPMI-8226 subcutaneous xenograft. Briefly: RPMI-8226 xenograft tumor model.
The next series relates to MYC. As to the kind of experiment: MYC degradation in MM cells, Western blot. Format: cell-based, human. As to conditions: RPMI-8226 cells. As for the experimental part:
Western blot: RPMI-8226 cells were grown to approximately 80% confluency in a T-75 flask. Cells were treated with either vehicle (DMSO) or TCH-165 at the indicated concentrations, for 4 h. In experiments involving bortezomib, cells were pre-treated with bortezomib (5 μM) for 1 h before adding TCH-165 or vehicle for a further 4 h. Cells were pelleted and washed with chilled PBS buffer (2X) and resuspended in chilled RIPA buffer supplemented with protease inhibitor cocktail (Sigma Aldrich; Burlington, MA, USA). Total protein was quantified by bicinchoninic acid assay (BCA assay, Thermofisher Scientific; Waltham, MA, USA), normalized to 2 mg/mL and boiled with 5X SDS loading buffer. Lysates (30 μg) were resolved on a 4–20% Tris/glycine gel and transferred to a PVDF membrane. The membrane was probed with anti MYC (Cell Signaling; cat#5605; Danvers, MA, USA) and anti-GAPDH-HRP (Santa Cruz; sc-47724 HRP; Dallas TX, USA) antibodies.
On the technique in general: In western blotting, separated proteins are transferred to a membrane and probed.

In series [5] the test system is MYC Reporter (Luc)-HCT-116 cells. Briefly: MYC-Luc reporter assay. In kind it is cell-based. As for the experimental part: The MYC Reporter (Luc)-HCT-116 Cell line, Catalog #60520, was bought from BPS Bioscience. MYC reporter (Luc)-HCT-116 cells were seeded in a white, clear bottom, 96-well microplate at 25,000 cells/well, in McCoy’s 5A media supplemented with 10% FBS and 1% penicillin/streptomycin. The plate was incubated at 37 °C with 5% CO2 overnight. The next day, cells were treated with 0.0 µM, 0.1 µM, 1.0 µM, 2.5 µM, 5.0 µM, 10 µM, or 20 µM TCH-165, in Opti-MEM supplemented with 0.5% FBS, 1% non-essential amino acids, 1 mM Sodium Pyruvate and 1% penicillin/streptomycin. The plate was incubated at 37 °C with 5% CO2 for 16 h. Firefly luminescence was measured using the One-Step Luciferase Assay System from BPS Biosciences.
On the technique in general: Reporter assays use an easily measured gene product as a stand-in for the process of interest.

For orientation: CC50 means the concentration that lowers cell viability or growth by half. Lower therefore signals harm at low concentration. By Cmax is commonly meant the highest concentration seen after dosing. A word on the Tmax: it is the time at which the peak concentration occurs. As usually defined, the AUC is the area under the concentration-time curve, a measure of exposure. As a reminder, the EC50 is the midpoint of the concentration-response curve.

The structures appear in SMILES notation. Where “and” joins values, the source holds several entries; their conditions need not be identical. Equal entries are not always repeated. Where two headings read alike, the source gives them in different places.

With `CCOC(=O)[C@]1(c2ccccc2)N=C(c2ccc(OC)cc2)N(Cc2ccccc2)[C@@H]1c1ccc(NCc2ccccc2)cc1` [TCH-165], the CC50 in series [1] was 8.1 µM; in series [3] it was 1000 nM. Further, the Cmax in series [2] (male, CD-1, mouse, plasma, CD-1 mice, 100 mg/kg oral bid, second dose 8 h after the first, read-out: Cmax following the second dose) came to 1430 ± 625 nM; in series [2] (male, CD-1, mouse, plasma, CD-1 mice, 100 mg/kg oral gavage, plasma, read-out: Cmax following the first dose) it was 932 ± 184 nM. Moreover, the Tmax in series [2] (male, CD-1, mouse, plasma, CD-1 mice, 100 mg/kg oral bid, second dose 8 h after the first, read-out: Tmax following the second dose) was 12 h; in series [2] (male, CD-1, mouse, plasma, CD-1 mice, 100 mg/kg oral gavage, read-out: Tmax following the first dose), 2 h. The AUC in series [2] (male, CD-1, mouse, plasma, mice, means, 100 mg/kg bid oral, read-out: AUC (nM) (0-16 for mice)) came out at 14 µM·h. For the same molecule, in series [2] (male, mouse, plasma, CD-1 mice, 100 mg/kg oral bid, trapezoidal method, read-out: mean AUC (0–16 h)), the AUC(0-t) was found to be 14 µM·h. Further, the “metabolic lability of the ester moiety (by LC-MS)” value in series [2] (mouse PK study) is listed as “not metabolically labile”. For the same molecule, the “reduction of tumor growth compared to vehicle control” value in series [4] (100 mg/kg bid oral gavage, after 42 days, p < 0.05) is 75.71% and 76%. Besides, in series [4] (SCID mice, 100 mg/kg bid oral), the “loss of body weight” value is below 10%. Further, the average tumor volume in series [4] (after 42 days, TCH-165 100 mg/kg bid oral, bortezomib 0.375 reduced to 0.09 mg/kg i.v. 3X per week) is listed as 304.43 (±49.50) mm^3. Moreover, the “efficacy of TCH-165 on MYC protein levels with proteasome blocked” value in the series on MYC (TCH-165 5 μM with BTZ 5 μM) was “nearly completely abrogated”. Also, the “MYC protein levels compared to vehicle control” value in the series on MYC (TCH-165 5 μM, 4 h) is given as “reduced MYC protein levels”. Further, the EC50 in series [5] (Homo sapiens, stably transfected HCT-116 cells, 16 h, 95% CI 2.46–2.95, read-out: EC50 of decrease of MYC-mediated luciferase transcription) came to 2570 nM. For the same molecule, the “MYC-mediated luciferase transcription with addition of bortezomib” value in series [5] (TCH-165 3 μM after bortezomib 10 nM, 2 h pre-incubation) is reported as “restored luciferase transcription back to the levels of the vehicle control”.

The values above are taken from publication PMC9138505, “Small Molecule 20S Proteasome Enhancer Regulates MYC Protein Stability and Exhibits Antitumor Activity in Multiple Myeloma” (Biomedicines, 2022).
